Experimental data as given in ChEMBL document CHEMBL3039007, “Structure-based identification of OATP1B1/3 inhibitors” (Mol Pharmacol, 2013).
Residues, ends and D or L forms follow the SMILES beside them. *: point of attachment. For = O=C*

Columns and labels:
[1] = biological target: T1, Solute carrier organic anion transporter family member 1B3 (Homo sapiens, UniProt Q9NPD5); settings: chinese hamster, cho, 10 µM
T1 sequence (Q9NPD5 whole entry): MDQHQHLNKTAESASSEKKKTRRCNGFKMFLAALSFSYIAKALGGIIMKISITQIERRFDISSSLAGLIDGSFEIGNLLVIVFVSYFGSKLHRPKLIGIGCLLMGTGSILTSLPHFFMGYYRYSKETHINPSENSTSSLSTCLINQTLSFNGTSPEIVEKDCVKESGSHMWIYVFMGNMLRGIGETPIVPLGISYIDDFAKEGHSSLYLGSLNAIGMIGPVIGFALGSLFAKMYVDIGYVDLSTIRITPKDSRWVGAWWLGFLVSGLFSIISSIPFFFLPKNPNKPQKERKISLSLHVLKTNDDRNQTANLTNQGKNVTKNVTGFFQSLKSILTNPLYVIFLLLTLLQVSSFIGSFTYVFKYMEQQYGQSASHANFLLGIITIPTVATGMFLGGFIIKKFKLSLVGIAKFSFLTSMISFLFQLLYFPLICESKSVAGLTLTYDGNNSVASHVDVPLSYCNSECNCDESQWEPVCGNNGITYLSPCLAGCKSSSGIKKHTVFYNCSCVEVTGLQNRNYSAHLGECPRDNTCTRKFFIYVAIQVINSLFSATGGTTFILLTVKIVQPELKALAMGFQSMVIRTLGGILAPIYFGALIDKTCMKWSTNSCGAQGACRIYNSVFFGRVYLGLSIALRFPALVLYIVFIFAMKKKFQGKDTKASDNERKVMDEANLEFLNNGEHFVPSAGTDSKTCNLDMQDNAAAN

[2] = biological target: T2, Solute carrier organic anion transporter family member 1B1 (Homo sapiens, UniProt Q9Y6L6); settings: chinese hamster, cho, 10 µM
T2 sequence (Q9Y6L6 whole entry): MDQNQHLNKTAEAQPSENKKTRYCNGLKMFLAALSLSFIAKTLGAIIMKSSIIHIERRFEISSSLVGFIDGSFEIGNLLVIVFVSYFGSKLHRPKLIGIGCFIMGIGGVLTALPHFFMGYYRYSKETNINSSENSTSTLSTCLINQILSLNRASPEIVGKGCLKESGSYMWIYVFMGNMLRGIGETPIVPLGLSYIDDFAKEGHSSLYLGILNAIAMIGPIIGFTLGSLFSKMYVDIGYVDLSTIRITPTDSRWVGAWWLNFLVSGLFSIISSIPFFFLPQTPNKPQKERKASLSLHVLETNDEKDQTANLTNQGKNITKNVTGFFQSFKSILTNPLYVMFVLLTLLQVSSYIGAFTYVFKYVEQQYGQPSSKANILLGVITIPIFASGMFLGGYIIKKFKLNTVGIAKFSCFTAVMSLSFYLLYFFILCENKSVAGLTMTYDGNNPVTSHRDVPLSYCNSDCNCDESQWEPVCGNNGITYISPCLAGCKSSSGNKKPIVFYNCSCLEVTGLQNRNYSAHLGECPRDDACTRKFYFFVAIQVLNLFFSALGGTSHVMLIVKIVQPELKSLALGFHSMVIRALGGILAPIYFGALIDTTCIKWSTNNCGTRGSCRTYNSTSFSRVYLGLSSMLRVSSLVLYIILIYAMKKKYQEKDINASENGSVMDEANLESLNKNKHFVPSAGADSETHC

Compound | residual activity [1] | residual activity [2]
CC(C)CC(N(C)C)C1(c2ccc(Cl)cc2)CCC1.Cl (configuration not stated) | 113.9% | 96.94%
CC(=O)NC(C(=O)O)C(C)(C)SN=O (configuration not stated) | 84.98% | 73.57%
C[C@]12CC[C@@H](OS(=O)(=O)[O-])C[C@@H]1CC[C@@H]1[C@@H]2CC[C@]2(C)C(=O)CC[C@@H]12.[Na+] | 40.78% | 27.84%
CC(=O)O[C@H]1CC[C@@]2(C)[C@H](CC[C@@H]3[C@@H]2CC[C@]2(C)[C@@H]4[C@H](C[C@@H]32)O[C@]2(CC[C@@H](C)CO2)[C@H]4C)C1 | 92.75% | 103.6%
CC(=O)O[C@H]1CC[C@@]2(C)C(=CC[C@H]3[C@@H]4CC[C@H]([C@H](C)CCCC(C)C)[C@@]4(C)CC[C@@H]32)C1 | 102.8% | 89.8%
CSCC[C@H](NC=O)C(=O)N[C@@H](Cc1ccccc1)C(=O)O (For-Met-Phe-OH) | 104.4% | 38.77%
CC(C)C[C@H](NC(=O)CN)C(=O)N[C@@H](Cc1ccccc1)C(=O)O (H-Gly-Leu-Phe-OH) | 114.9% | 118.4%
CC1=CC(=O)CC(C)(C)C1(O)/C=C/C(C)=C\C(=O)O (racemic) [ABSCISIC ACID] | 92.91% | 70.85%
CC(C)CC(NC(=O)C(C)N)C(=O)O (racemic) [ALANYL-dl-LEUCINE] | 98.55% | 111.6%
CC(N)C(=O)NC(Cc1ccccc1)C(=O)O (racemic) [ALANYL-dl-PHENYLALANINE] | 75.84% | 90.94%
COc1ccc(C2COc3cc(O)ccc3C2)c(OC)c1O (racemic) [MUCRONULATOL(+/-)] | 87.73% | 87.17%
NC(C(=O)O)C(O)C(=O)O (racemic) [d,l-threo-3-HYDROXYASPARTIC ACID] | 82.91% | 70.17%
CC(C)CC(NC(=O)OCC1c2ccccc2-c2ccccc21)C(=O)O (single isomer, unassigned) [N- (9-FLUORENYLMETHOXYCARBONYL)-L-LEUCINE] | 48.34% | 32.48%
C=CCCCCCCCCCCCC(O)CC(O)CO (stereo in doubt; form 1) [AVOCADENE] | 100.3% | 107.8%
C=CCCCCCCCCCCCC(O)CC(O)CO (stereo in doubt; form 2) [AVOCADENE] | 104.3% | 99.03%
CNNC.Cl [1,2-DIMETHYLHYDRAZINE HYDROCHLORIDE] | 99.77% | 108.5%
COc1cc(OC)cc(OC)c1 [1,3,5-TRIMETHOXYBENZENE] | 68.6% | 90.48%
CCCn1c(=O)c2[nH]c(C3CCCC3)nc2n(CCC)c1=O [1,3-DIPROPYL-8-CYCLOPENTYLXANTHINE [DPCPX]] | 117.3% | 264.1%
Cc1cc(O)c2c(c1O)C(=O)c1c(O)cc(C)c(O)c1C2=O [1,4,5,8-TETRAHYDROXY-2,6-DIMETHYLANTHROQUINONE] | 105.2% | 102.7%
Clc1ccc(Cl)cc1 [1,4-DICHLOROBENZENE] | 96.49% | 99.98%
NC1(C(=O)O)CCC1 [1-AMINOCYCLOBUTANE CARBOXYLIC ACID] | 95.93% | 131.1%
NC1(C(=O)O)CC1 [1-Aminocyclopropane carboxylic acid] | 99.32% | 125.9%
Cn1c(=O)[nH]c2nc[nH]c2c1=O [1-METHYLXANTHINE] | 96.5% | 102.1%

Compound | residual activity [1] | residual activity [2]
Cl.N=C(N)NC(=N)Nc1ccccc1 [1-PHENYLBIGUANIDE HYDROCHLORIDE] | 94.41% | 80.12%
COc1ccc2c(c1OC)C(=O)O[C@H]2[C@H]1c2cc3c(cc2CCN1C)OCO3 [1R,9S-HYDRASTINE] | 84.49% | 94.94%
O=C(/C=C/c1ccccc1)c1ccc(O[C@@H]2O[C@H](CO)[C@@H](O)[C@H](O)[C@H]2O)cc1O [2',4'-DIHYDROXYCHALCONE 4'-GLUCOSIDE] | 107.4% | 99.51%
O=C(/C=C(\O)c1ccccc1)c1ccccc1O [2',beta-DIHYDROXYCHALCONE] | 97.75% | 95.04%
COc1ccc(-c2coc3cc(O)ccc3c2=O)c(OC)c1 [2'-METHOXYFORMONETIN] | 83.66% | 74.56%
COc1ccc(C(=O)c2ccc(O)cc2)c(O)c1O [2,3,4'-TRIHYDROXY-4-METHOXYBENZOPHENONE] | 112.1% | 114.8%
CCOc1ccc(C(=O)c2ccc(O)c(O)c2O)cc1 [2,3,4-TRIHYDROXY-4'-ETHOXYBENZOPHENONE] | 99.48% | 134.1%
CCOc1ccc(C(=O)c2ccc(OC)c(O)c2O)cc1 [2,3-DIHYDROXY-4-METHOXY-4'-ETHOXYBENZOPHENONE] | 102.2% | 172.8%
O=C(O)c1cccc(O)c1O [2,3-DIHYDROXYBENZOIC ACID] | 84.74% | 94.43%
COC(=O)COc1cc(Cl)c(Cl)cc1Cl [2,4,5-TRICHLOROPHENOXYACETIC ACID, METHYL ESTER] | 116.4% | 98.01%
O=C(O)COc1cc(Cl)c(Cl)cc1Cl [2,4,5-TRICHLOROPHENOXYACETIC ACID] | 96.75% | 95.54%
CC(=O)c1c(O)cc(O)cc1O [2,4,6-TRIHYDROXYACETOPHENONE] | 92.98% | 72.12%
COC(=O)COc1ccc(Cl)cc1Cl [2,4-DICHLOROPHENOXYACETIC ACID, METHYL ESTER] | 110% | 116.2%
O=C(O)COc1ccc(Cl)cc1Cl [2,4-DICHLOROPHENOXYACETIC ACID] | 104.1% | 111.6%
O=[N+]([O-])c1ccc(O)c([N+](=O)[O-])c1 [2,4-DINITROPHENOL] | 78.36% | 75.05%
COc1cc(O)c(C)c(O)c1 [2,6-DIHYDROXY-4-METHOXYTOLUENE] | 91.69% | 108.8%
COC1=CC(=O)C=C(OC)C1=O [2,6-DIMETHOXYQUINONE] | 101.9% | 115.1%
COc1cccc(OC)c1OCCNCC1COc2ccccc2O1.Cl (configuration not stated) [2- (2,6-DIMETHOXYPHENOXYETHYL)AMINOMETHYL-1,4-BENZODIOXANE HYDROCHLORIDE (WB 4101)] | 96.02% | 247.1%
CC(=O)c1ccc[nH]1 [2-ACETYLPYRROLE] | 98.29% | 111.7%
COC1=CC(=O)C(C(=O)c2ccccc2)=CC1=O [2-BENZOYL-5-METHOXYBENZOQUINONE] | 165.6% | 106.8%
CCOC(=O)C(=O)C1(C(=O)OCC)Oc2cc(OC)cc(OC)c2C(=O)C1c1ccccc1 (configuration not stated) [2-ETHOXYCARBONYL-2-ETHOXYOXALOYLOXYDIHYDROCHRYSIN DIMETHYL ETHER] | 100.5% | 117%
CCOC(=O)C1(O)Oc2cc(OC)cc(OC)c2C(=O)C1c1ccccc1 (configuration not stated) [2-ETHOXYCARBONYL-2-HYDROXY-5,7-DIMETHOXYISOFLAVANONE] | 104% | 106.9%
COc1ccc(C(=O)O)c(O)c1OC [2-HYDROXY-3,4-DIMETHOXYBENZOIC ACID] | 82.78% | 82.39%
